Reference: patent publication US20230293544A1, “METHODS, DOSAGE REGIMENS, AND COMPOSITIONS FOR TREATING HIDRADENITIS” (PFIZER INC., priority 2022, published 2023)
“And” between values parts separate entries of the source, which are not always exact repeats. Equal values may be shown once.

Experiments:
[1] = test system: patients with moderate to severe HS; settings: cited from earlier work
[2] = test system: human patients with moderate to severe hidradenitis suppurativa (HS); assay: Phase 2A double-blind, parallel group study of efficacy vs placebo in hidradenitis suppurativa; format: in vivo
Source text: This study provided data on efficacy, safety, tolerability, and pharmacokinetics of the therapeutic agents being examined in the oral treatment of moderate to severe HS. […] This included an up-to-6-week Screening Period, a 16-week Dosing Period and a 4-week Follow-up Period. The study enrolled a total of approximately 192 participants (expected to provide approximately 156 completers). Following the screening period, participants who meet eligibility criteria at the baseline visit were randomly assigned to receive 1 of 6 treatments. One oral dose level of each therapeutic agent, one of which was [(1S)-2,2-difluorocyclo-propyl][(1R,5S)-3-{2-[(1-methyl-1H-pyrazol-4-yl)amino]pyrimidin-4-yl}-3,8-diazabicyclo[3.2.1]oct-8-yl]methanone (45 mg QD), or matching placebo in a 3:1 ratio was investigated. For analysis, placebo groups were combined to yield final therapeutic agent:placebo ratio of 1:1:1:1 for each therapeutic agent and pooled placebo. No more than 30% of enrolled participants were inadequate anti-TNF responders. Participants were stratified according to whether they were an inadequate anti-TNF responder or not.
Additionally, no more than 20% of enrolled participants entered the study on a background of concomitant oral antibiotic therapy for treatment of HS; the dosing regimen (dose and frequency) must have been stable for at least 8 weeks (56 days) prior to the baseline (Day 1) visit and remained stable throughout study participation. Antibiotics taken on an “as needed” (PRN) basis were not considered a stable dose. Participants were stratified according to whether they were on a background of concomitant antibiotic therapy or not. The chronic toxicology package for each asset supported the planned study treatment duration of 16 weeks. Hidradenitis suppurative clinical response, the primary endpoint used, is defined as: […]
at least a 50% reduction in the total abscess and inflammatory nodule (AN) count relative to baseline, and no increase in abscess count, and no increase in draining fistula count.
The above Examples were a phase 2A double-blind, parallel group study assessing the efficacy of PF-06700841, a dual inhibitor of human tyrosine kinase 2 (TYK2) and Janus kinase 1 (JAK1), compared to Placebo in human patients with moderate to severe hidradenitis suppurativa (HS).
This was a randomized, double-blind, parallel-group multi-center study that enrolled approximately 192 participants with moderate to severe HS (with approximately 156 completers). Participants were randomized to PF-06700841 (along with two other treatments studied contemporaneously) and matching placebo in a 3:1 ratio. Each randomized participant was followed for a 16-week dosing period and a 4-week follow-up period. For analysis, placebo groups were combined to yield a 1:1:1:1 ratio for each treatment and pooled placebo. No more than 30% participants were enrolled with inadequate anti-TNF response and no more that 20% of the participants were on background antibiotic therapy, and stratified randomization strategy was adopted for this study. Efficacy data from all randomized participants until week 16 are in the scope of this report.
The primary objective of the study was to evaluate the efficacy and safety of PF-06700841 vs placebo in participants with HS. The primary efficacy endpoint was percentage of participants with HiSCR response (50% reduction from baseline in abscess and inflammatory nodule (AN) count, with no increase in abscess and draining fistula count from baseline) at week 16. […]

[3] = test system: human patients with moderate to severe hidradenitis suppurativa (HS); assay: Safety and tolerability in the phase 2A HS study (TEAEs, vital signs, laboratory abnormalities); format: in vivo
Procedure: The safety and tolerability of PF-06700841 over time was assessed using incidence of treatment-emergent adverse events (TEAEs), vital signs, incidence of specific clinical laboratory abnormalities including but not limited to hemoglobin, neutrophils, platelets, lymphocytes, lipids, eGFR, liver function tests (LFTs) and CPK.
All participants who received at least one dose of randomized study medication and have a baseline are included in the full analysis set (FAS), the population for the efficacy analysis. The safety analysis set (SAS) includes all participants who received at least one dose of investigational product. The HiSCR response data at week 16 comparing active treatment group and placebo group was to be analyzed using the Cochran Mantel Hanzel (CMH) test with Minimum Risk (MR) weight strategy after treating missing data as non-responders, adjusting for the stratification factor of prior anti-TNF failure status. Due to very small number of participants with concomitant use of antibiotics status at baseline in some subgroups, this was not included as stratum factor in the model. Hochberg's step-up procedure was employed to address any multiplicity arising from the analysis of 3 different treatments within the same study and overall familywise error rate was controlled at 0.1 level. All the continuous secondary endpoints were analyzed using ANCOVA model, where missing observation were imputed using multiple imputation (MI) method.

[4] = Population PK analysis in the phase 2A HS study; format: in vivo, human; settings: preliminary population PK analysis
Procedure: Blood was collected to obtain the PK samples at pre-dose, Weeks 1, 2, 4, 6, 8, and 16, and at 0.5-, 1-, 2-, and 4-hours post-dose on Week 8. The available data was analyzed using population PK modeling.

Compound | Rank-ordered secondary outcomes (lesions, pain, modified Sartorius score) vs placebo ([1]; Week 12, PIONEER II only) | Clinical response rate (HiSCR) at Week 12, PIONEER I ([1]; adalimumab weekly, PIONEER I, Week 12) [%] | Clinical response rate (HiSCR) at Week 12, PIONEER II ([1]; adalimumab weekly, PIONEER II, Week 12) [%] | Hazard ratio for time to first flare ([2]; Cox proportional model, vs placebo) | Difference from placebo in Skin Pain NRS30 response rate at week 16 ([2]; PGA-Skin Pain NRS at worst, participants with baseline score 3, LOCF) [%] | Probability of flare, Kaplan Meier plot of time to first flare (FIG. 5) ([2]; at 16 weeks, FAS, versus placebo) | HiSCR response rate at week 16 among Hurley Stage II participants ([2]; baseline Hurley Stage II, week 16) [%] | HiSCR response rate at week 16 among Hurley Stage III participants ([2]; baseline Hurley Stage III, week 16) [%] | More participants compared to placebo achieving total AN count of 0, 1 or 2 at week 16 ([2]; difference from placebo, week 16) [%] | Difference from placebo (δ) in percentage of participants experiencing at least one flare by week 16 ([2]; flare = at least 25% increase in AN count with minimum increase of 2 relative to baseline) [%] | Percentage of Participant Achieving HISCR Response at Week 16, Overall Response n/N (%) ([2]; overall population, FAS, NRI, week 16, 45 mg QD oral) | Difference from Placebo in percent change from baseline at week 16 for the IHS4 score ([2]; week 16) [%] | HiSCR response over time, plot (FIG. 2) ([2]; week 16, versus placebo) | Safety and tolerability ([3]; 16-week dosing) | Deaths or cases of herpes zoster/simplex in the study ([3]; in vivo) | Severity of the majority of treatment-emergent adverse events (TEAEs) ([3]; in vivo) | Exposures in HS compared to healthy or other patient populations [4]
adalimumab | significantly greater improvement than the placebo groups | 41.8 | 58.9 |  |  |  |  |  |  |  |  |  |  |  |  |  | 
Cn1cc(Nc2nccc(N3C[C@H]4CC[C@@H](C3)N4C(=O)[C@@H]3CC3(F)F)n2)cn1 [PF-06700841, [(1S)-2,2-difluorocyclo-propyl][(1R,5S)-3-{2-[(1-methyl-1H-pyrazol-4-yl)amino]pyrimidin-4-yl}-3,8-diazabicyclo[3.2.1]oct-8-yl]methanone] |  |  |  | 0.4 | 6.5 | lowest probability of flare at 16 weeks | 59.4 | 40 | 15.6 | −22.3 | 51.9% and 27/52 (51.9) % | −14.6 | highest response at week 16 | generally safe and well tolerated | no deaths or cases of herpes zoster/simplex | mild and moderate | expected exposures in HS appear to be achieved
